US20220265629A1, “TREATMENT OF SYSTOLIC DYSFUNCTION AND HEART FAILURE WITH REDUCED EJECTION FRACTION WITH THE COMPOUND (R)-4-(1-((3-(DIFLUOROMETHYL)-1-METHYL-1H-PYRAZOL-4-YL)SULFONYL)-1-FLUOROETHYL)-N-(ISOXAZOL-3-YL)PIPERIDINE-1-CARBOXAMIDE” (MyoKardia, Inc., priority 2019, published 2022)
Read-outs that look alike come from different tables or passages of the source.

Test: Single ascending oral dose study in healthy volunteers: plasma pharmacokinetics
Type: in vivo, human
Settings: human, plasma, oral; for concentration at 72 h: 72 Hours Postdose
Source text: This example describes the first-in-human study of Compound I. Based on its mechanism of action, Compound I may offer a targeted therapy for patients with DCM caused by genetic or nongenetic mechanisms. The study was a randomized, double-blind, placebo-controlled, sequential group, single-ascending (oral) close study in healthy subjects aged 18-55 years. Eight dosing cohorts, each comprising eight healthy subjects, were enrolled. Within each cohort, subjects were randomized 6:2 to Compound I:placebo.
Subjects were resident at the clinical site for up to 5 days and 4 nights, from Day −1 (the day before dosing) to Day 4, and received a single dose of Compound I or placebo on Day 1. ECG telemetry was initiated 1 hour preclose and continued through 48 hours postclose (Day 3). Any subject with a preclose resting HR≥80 beats per minute was considered ineligible and not treated. […] Subjects returned for a safety follow-up visit 7 days (±1 day) after dosing.
All randomized study subjects received either Compound I or matching placebo as a single oral dose after a fasting period of at least 6 hours. Compound I drug substance is a crystalline, free-base, synthetic molecule with a molecular weight of 435.4 g/mol.
Compound I was provided as a powder for oral suspension. Placebo was provided as calcium carbonate powder. Both treatments were closed orally as a suspension. The suspension was made using Ora-Plus® suspending vehicle (Perrigo) and a cherry syrup flavoring vehicle (Humco), mixed 50% to 50%. The suspension was followed by approximately 100 mL water. The suspension was made up within 14 days from the time in which it was closed which was consistent with the stability data on the suspension. The suspension was made up so the volume administered to the subjects who received Compound I was the same at 20 mL.
Each subject received a close according to the cohort in which they were enrolled. Cohorts were enrolled sequentially, with each cohort receiving an escalated dose of Compound I. The closes administered were 3 mg, 10 mg, 25 mg, 50 mg, 100 mg, 175 mg, 350 mg, and 525 mg, respectively.
The concentrations of Compound I in human plasma and urine were quantitated by high performance liquid chromatography with tandem mass spectrometric detection (LC MS/MS) (Biological sample analysis study report Alturas AD17-726). Plasma samples were extracted by protein precipitation with acetonitrile containing internal standard MYK-5654. The calibration curves were linear over concentration range of 0.500 to 1000 ng/mL with a lower limit of quantification (LLOQ) of 0.500 ng/mL.
The PK Population included all subjects who received Compound I. Blood samples were collected for PK assessments. The actual timing of the samples may have been modified and/or up to an additional 2 samples may have been requested by the SRC after review of the data from previous cohorts. It was important that PK sampling occurred as closely as possible to the scheduled time (±10%). Both blood and urine samples were used for PK assessments.
In addition, for subjects who received placebo, a single plasma sample near the predicted tmax of Compound I was evaluated to confirm the lack of circulating Compound I. Plasma concentration data for Compound I was summarized using descriptive statistics, including mean, standard deviation (SD), median, minimum, and maximum values, and percent coefficient of variation. Other PK parameters included (but were not limited to) Cmax, tmax, AUC, t1/2, and MRT. Additionally, the apparent terminal-phase terminal half-life was calculated. The close proportionality of AUC and Cmax was explored.

Q: With `Cn1cc(S(=O)(=O)[C@@](C)(F)C2CCN(C(=O)Nc3ccon3)CC2)c(C(F)F)n1` [Compound I, (R)-4-(1-((3-(difluoromethyl)-1-methyl-1H-pyrazol-4-yl)sulfonyl)-1-fluoroethyl)-N-(isoxazol-3-yl)piperidine-1-carboxamide] as the molecule, how does the concentration at 72 h (175 mg, 175 mg, read-out: Plasma concentration, Mean) read?
A: 71.3 ng/mL

Q: And the concentration at 72 h (175 mg, 175 mg, read-out: Plasma concentration, Median)?
A: 73.2 ng/mL

Q: What about the AUC(0-t) (175 mg, read-out: AUC0-24, Geometric Mean) of the same molecule?
A: 22000 ng·h/mL

Q: And the AUC(0-t) (175 mg, read-out: AUC0-24, Mean)?
A: 22300 ng·h/mL

Q: What about the AUC(0-t) (175 mg, read-out: AUC0-24, Median) of the same molecule?
A: 21700 ng·h/mL

Q: And the AUC(0-t) (175 mg, read-out: AUC0-48, Geometric Mean)?
A: 32300 ng·h/mL

Q: And the AUC(0-t) (175 mg, read-out: AUC0-48, Mean)?
A: 32800 ng·h/mL

Q: And the AUC(0-t) (175 mg, read-out: AUC0-48, Median)?
A: 32700 ng·h/mL

Q: And the AUC(0-t) (175 mg, read-out: AUC0-last, Geometric Mean)?
A: 38200 ng·h/mL

Q: What about the AUC(0-t) (175 mg, read-out: AUC0-last, Mean) of the same molecule?
A: 39000 ng·h/mL

Q: And the AUC(0-t) (175 mg, read-out: AUC0-last, Median)?
A: 39600 ng·h/mL

Q: What about the AUC(0-inf) (175 mg, read-out: AUC0-∞, Geometric Mean) of the same molecule?
A: 38300 ng·h/mL

Q: And the AUC(0-inf) (175 mg, read-out: AUC0-∞, Mean)?
A: 39100 ng·h/mL

Q: And the AUC(0-inf) (175 mg, read-out: AUC0-∞, Median)?
A: 39700 ng·h/mL

Q: And the Cmax (175 mg, read-out: Cmax, Geometric Mean)?
A: 1300 ng/mL

Q: And the Cmax (175 mg, read-out: Cmax, Mean)?
A: 1320 ng/mL

Q: What about the Cmax (175 mg, read-out: Cmax, Median) of the same molecule?
A: 1300 ng/mL

Q: What about the half-life (175 mg, read-out: Half-Life Lambda Z, Geometric Mean (converted)) of the same molecule?
A: 15.8 h

Q: And the half-life (175 mg, read-out: Half-Life Lambda Z, Mean (converted))?
A: 15.8 h

Q: What about the half-life (175 mg, read-out: Half-Life Lambda Z, Median (converted)) of the same molecule?
A: 16.4 h

Q: And the MRT (175 mg, read-out: Mean Residence Time, Geometric Mean)?
A: 24.4 h

Q: What about the MRT (175 mg, read-out: Mean Residence Time, Mean) of the same molecule?
A: 24.6 h

Q: What about the MRT (175 mg, read-out: Mean Residence Time, Median) of the same molecule?
A: 24.4 h

Q: And the Tmax (175 mg, read-out: Tmax, Geometric Mean)?
A: 5.07 h

Q: And the Tmax (175 mg, read-out: Tmax, Mean)?
A: 5.11 h

Q: And the Tmax (175 mg, read-out: Tmax, Median)?
A: 5 h

Q: And the Vd/F (175 mg, read-out: Vz/F, Geometric Mean)?
A: 104 L

Q: What about the Vd/F (175 mg, read-out: Vz/F, Mean) of the same molecule?
A: 106 L

Q: And the Vd/F (175 mg, read-out: Vz/F, Median)?
A: 101 L

Q: What about the AUC(0-t) (350 mg + 525 mg, read-out: AUC0-24, Geometric Mean) of the same molecule?
A: 40900 ng·h/mL

Q: What about the AUC(0-t) (350 mg + 525 mg, read-out: AUC0-24, Mean) of the same molecule?
A: 42100 ng·h/mL

Q: And the AUC(0-t) (350 mg + 525 mg, read-out: AUC0-24, Median)?
A: 38500 ng·h/mL

Q: And the AUC(0-t) (350 mg + 525 mg, read-out: AUC0-48, Geometric Mean)?
A: 60500 ng·h/mL

Q: And the AUC(0-t) (350 mg + 525 mg, read-out: AUC0-48, Mean)?
A: 62400 ng·h/mL

Q: And the AUC(0-t) (350 mg + 525 mg, read-out: AUC0-48, Median)?
A: 57400 ng·h/mL

Q: What about the AUC(0-t) (350 mg + 525 mg, read-out: AUC0-last, Geometric Mean) of the same molecule?
A: 70600 ng·h/mL

Q: What about the AUC(0-t) (350 mg + 525 mg, read-out: AUC0-last, Mean) of the same molecule?
A: 74000 ng·h/mL

Q: And the AUC(0-t) (350 mg + 525 mg, read-out: AUC0-last, Median)?
A: 68600 ng·h/mL

Q: And the AUC(0-inf) (350 mg + 525 mg, read-out: AUC0-∞, Geometric Mean)?
A: 71000 ng·h/mL

Q: What about the AUC(0-inf) (350 mg + 525 mg, read-out: AUC0-∞, Mean) of the same molecule?
A: 74400 ng·h/mL

Q: What about the AUC(0-inf) (350 mg + 525 mg, read-out: AUC0-∞, Median) of the same molecule?
A: 68800 ng·h/mL

Q: And the Cmax (350 mg + 525 mg, read-out: Cmax, Geometric Mean)?
A: 2530 ng/mL

Q: What about the Cmax (350 mg + 525 mg, read-out: Cmax, Mean) of the same molecule?
A: 2580 ng/mL

Q: What about the Cmax (350 mg + 525 mg, read-out: Cmax, Median) of the same molecule?
A: 2500 ng/mL

Q: And the half-life (350 mg + 525 mg, read-out: Half-Life Lambda Z, Geometric Mean (converted))?
A: 14.5 h

Q: What about the half-life (350 mg + 525 mg, read-out: Half-Life Lambda Z, Mean (converted)) of the same molecule?
A: ~15 h

Q: What about the half-life (350 mg + 525 mg, read-out: Half-Life Lambda Z, Median (converted)) of the same molecule?
A: 14.5 h

Q: And the MRT (350 mg + 525 mg, read-out: Mean Residence Time, Geometric Mean)?
A: 23.9 h

Q: And the MRT (350 mg + 525 mg, read-out: Mean Residence Time, Mean)?
A: 24.3 h

Q: And the MRT (350 mg + 525 mg, read-out: Mean Residence Time, Median)?
A: 23.5 h

Q: And the Tmax (350 mg + 525 mg, read-out: Tmax, Geometric Mean)?
A: 4.89 h

Q: What about the Tmax (350 mg + 525 mg, read-out: Tmax, Mean) of the same molecule?
A: 5 h

Q: And the Vd/F (350 mg + 525 mg, read-out: Vz/F, Geometric Mean)?
A: 126 L

Q: What about the Vd/F (350 mg + 525 mg, read-out: Vz/F, Mean) of the same molecule?
A: 132 L

Q: What about the Vd/F (350 mg + 525 mg, read-out: Vz/F, Median) of the same molecule?
A: 116 L

Q: What about the concentration at 6 h (350 mg, 6 Hours Postdose, 350 mg, read-out: Plasma concentration, Geometric Mean) of the same molecule?
A: 2620 ng/mL
